Data reported in US20190322676A1, “CERAMIDE GALACTOSYLTRANSFERASE INHIBITORS FOR THE TREATMENT OF DISEASE” (BioMarin Pharmaceutical Inc., priority 2016, published 2019).
Counter-ions that a name gives are not always drawn.

Biological target: T1, human CGT (ceramide galactosyltransferase), CHO/CGT lysate (Homo sapiens, UniProt Q16880)
T1 construct: Full-length human CGT cDNA was cloned into the BamH1/Xho1 site of pcDNA3.1 (+); expressed in transfected cells; host or cells: Chinese hamster ovary (CHO) cells; lysate prepared with M-PER
T1 sequence (Q16880 21-541): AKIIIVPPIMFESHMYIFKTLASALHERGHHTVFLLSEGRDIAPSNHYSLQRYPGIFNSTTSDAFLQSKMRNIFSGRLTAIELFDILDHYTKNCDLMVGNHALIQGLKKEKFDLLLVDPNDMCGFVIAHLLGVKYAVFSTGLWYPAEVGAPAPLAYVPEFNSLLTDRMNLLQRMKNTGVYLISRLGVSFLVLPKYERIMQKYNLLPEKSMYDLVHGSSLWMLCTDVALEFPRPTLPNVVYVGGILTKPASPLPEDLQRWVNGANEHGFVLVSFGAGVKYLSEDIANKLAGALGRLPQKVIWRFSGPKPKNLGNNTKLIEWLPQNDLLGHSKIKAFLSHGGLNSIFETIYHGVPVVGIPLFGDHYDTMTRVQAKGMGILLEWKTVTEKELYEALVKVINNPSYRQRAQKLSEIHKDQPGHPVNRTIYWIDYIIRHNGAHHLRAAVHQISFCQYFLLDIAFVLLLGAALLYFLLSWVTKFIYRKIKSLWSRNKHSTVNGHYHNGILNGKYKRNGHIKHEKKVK
Test: CGT enzyme assay, RapidFire/MS/MS readout with 0.01% Tween added (Table 1 ranges with two asterisks **)
Format: biochemical
Settings: CGT enzymatic assay; range with two asterisks (**): RapidFire/MS/MS method with 0.01% Tween added
How it was run: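 IC50s come from variable-slope dose-response fits of internal-standard-normalized C6-NBD-dihydro-galactosylceramide, measured by RapidFire/MS/MS (ESI negative). Reactions: 1 h, 37 °C, human CGT-expressing CHO lysate (4 μg), 0.001–50 μM compound, 10 μM NBD-dihydro-ceramide, 17.5 μM UDP-galactose, 0.5% DMSO, pH 7.2; 0.01% Tween 80 added for ** values.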

SMILES | IC50 [µM]
N[C@@H]1CCN(C(=O)[C@@H](NS(=O)(=O)c2ccc3cc(OC4CCCC4)ccc3c2)C(F)(F)c2ccc(-c3ccc(Cl)cc3)cc2)CC1(F)F [Compound 161-1, N—((R)-3-((R)-4-amino-3,3-difluoropiperidin-1-yl)-1-(4′-chloro-[1,1′-biphenyl]-4-yl)-1,1-difluoro-3-oxopropan-2-yl)-6-(cyclopentyloxy)naphthalene-2-sulfonamide trifluoroacetate] | 1 to 10
N[C@H]1CCN(C(=O)[C@H](NS(=O)(=O)c2ccc3cc(OC4CCCC4)ccc3c2)C(F)(F)c2ccc(-c3ccc(Cl)cc3)cc2)CC1(F)F [Compound 161-2, N—((S)-3-((S)-4-amino-3,3-difluoropiperidin-1-yl)-1-(4′-chloro-[1,1′-biphenyl]-4-yl)-1,1-difluoro-3-oxopropan-2-yl)-6-(cyclopentyloxy) naphthalene-2-sulfonamide trifluoroacetate] | 30 to 100
N[C@H]1CCN(C(=O)[C@@H](NS(=O)(=O)c2ccc3cc(OC4CCCC4)ccc3c2)C(F)(F)c2ccc(-c3ccc(Cl)cc3)cc2)CC1(F)F [Compound 161-3, N—((R)-3-((S)-4-amino-3,3-difluoropiperidin-1-yl)-1-(4′-chloro-[1,1′-biphenyl]-4-yl)-1,1-difluoro-3-oxopropan-2-yl)-6-(cyclopentyloxy)naphthalene-2-sulfonamide trifluoroacetate] | < 1
N[C@@H]1CCN(C(=O)[C@H](NS(=O)(=O)c2ccc3cc(OC4CCCC4)ccc3c2)C(F)(F)c2ccc(-c3ccc(Cl)cc3)cc2)CC1(F)F [Compound 161-4, N—((S)-3-((R)-4-amino-3,3-difluoropiperidin-1-yl)-1-(4′-chloro-[1,1′-biphenyl]-4-yl)-1,1-difluoro-3-oxopropan-2-yl)-6-(cyclopentyloxy)naphthalene-2-sulfonamide trifluoroacetate] | 1 to 10
NC1CCN(C(=O)[C@@H](NS(=O)(=O)c2ccc3cc(OC4CCCC4)ccc3c2)C(F)(F)c2ccc(-c3ccc(Cl)cc3)cn2)CC1 [Compound 162-1, (R)—N-(3-(4-aminopiperidin-1-yl)-1-(5-(4-chlorophenyl)pyridin-2-yl)-1,1-difluoro-3-oxopropan-2-yl)-6-(cyclopentyloxy)naphthalene-2-sulfonamide] | 1 to 10
NC1CCN(C(=O)[C@H](NS(=O)(=O)c2ccc3cc(OC4CCCC4)ccc3c2)C(F)(F)c2ccc(-c3ccc(Cl)cc3)cn2)CC1 [Compound 162-2, (S)—N-(3-(4-aminopiperidin-1-yl)-1-(5-(4-chlorophenyl)pyridin-2-yl)-1,1-difluoro-3-oxopropan-2-yl)-6-(cyclopentyloxy)naphthalene-2-sulfonamide] | 10 to 30
NC1CCN(C(=O)[C@@H](NS(=O)(=O)c2ccc(OCC3CCCCC3)cc2)C(F)(F)c2ccc(-c3ccc(Cl)cc3)cn2)CC1 [Compound 163-1, (R)—N-(3-(4-aminopiperidin-1-yl)-1-(5-(4-chlorophenyl)pyridin-2-yl)-1,1-difluoro-3-oxopropan-2-yl)-4-(cyclohexylmethoxy)benzenesulfonamide] | 1 to 10
NC1CCN(C(=O)[C@H](NS(=O)(=O)c2ccc(OCC3CCCCC3)cc2)C(F)(F)c2ccc(-c3ccc(Cl)cc3)cn2)CC1 [Compound 163-2, (S)—N-(3-(4-aminopiperidin-1-yl)-1-(5-(4-chlorophenyl)pyridin-2-yl)-1,1-difluoro-3-oxopropan-2-yl)-4-(cyclohexylmethoxy) benzenesulfonamide] | 30 to 100
NC1CCN(C(=O)[C@@H](NS(=O)(=O)c2cc3ccc(OC4CCCC4)cc3s2)C(F)(F)c2ccc(-c3ccc(Cl)cc3)cc2)CC1 [Compound 164-1, (R)—N-(3-(4-aminopiperidin-1-yl)-1-(4′-chloro-[1,1′-biphenyl]-4-yl)-1,1-difluoro-3-oxopropan-2-yl)-6-(cyclopentyloxy)benzo[b]thiophene-2-sulfonamide] | 1 to 10
NC1CCN(C(=O)[C@H](NS(=O)(=O)c2cc3ccc(OC4CCCC4)cc3s2)C(F)(F)c2ccc(-c3ccc(Cl)cc3)cc2)CC1 [Compound 164-2, (S)—N-(3-(4-aminopiperidin-1-yl)-1-(4′-chloro-[1,1′-biphenyl]-4-yl)-1,1-difluoro-3-oxopropan-2-yl)-6-(cyclopentyloxy)benzo[b]thiophene-2-sulfonamide] | 1 to 10
NC1CCN(C(=O)[C@H](NS(=O)(=O)c2ccc(COC3CCCCC3)s2)C(F)(F)c2ccc(-c3ccc(Cl)cc3)cc2)CC1 [Compound 165-1, (S)—N-(3-(4-aminopiperidin-1-yl)-1-(4′-chloro-[1,1′-biphenyl]-4-yl)-1,1-difluoro-3-oxopropan-2-yl)-5-((cyclohexyloxy)methyl)thiophene-2-sulfonamide trifluoroacetate] | 30 to 100
NC1CCN(C(=O)[C@@H](NS(=O)(=O)c2ccc(COC3CCCCC3)s2)C(F)(F)c2ccc(-c3ccc(Cl)cc3)cc2)CC1 [Compound 165-2, (R)—N-(3-(4-aminopiperidin-1-yl)-1-(4′-chloro-[1,1′-biphenyl]-4-yl)-1,1-difluoro-3-oxopropan-2-yl)-5-((cyclohexyloxy)methyl)thiophene-2-sulfonamide trifluoroacetate] | 30 to 100
NC1CC2CCC(C1)N2C(=O)[C@@H](NS(=O)(=O)c1cc2ccc(OC3CCCC3)cc2s1)C(F)(F)c1ccc(Br)cc1 (stereo partly drawn) [Compound 167-1, N-((2R)-3-(3-amino-8-azabicyclo[3.2.1]octan-8-yl)-1-(4-bromophenyl)-1,1-difluoro-3-oxopropan-2-yl)-6-(cyclopentyloxy)benzo[b]thiophene-2-sulfonamide trifluoroacetate] | 1 to 10
NC1CC2CCC(C1)N2C(=O)[C@H](NS(=O)(=O)c1cc2ccc(OC3CCCC3)cc2s1)C(F)(F)c1ccc(Br)cc1 (stereo partly drawn) [Compound 167-2, N-((2 S)-3-(3-amino-8-azabicyclo[3.2.1]octan-8-yl)-1-(4-bromophenyl)-1,1-difluoro-3-oxopropan-2-yl)-6-(cyclopentyloxy)benzo[b]thiophene-2-sulfonamide trifluoroacetate] | 1 to 10

More lines, now with the values ahead:

IC50 [µM] | SMILES
1 to 10 | C=C(c1ccc(C(F)(F)[C@H](NS(=O)(=O)c2ccc3cc(OC4CCCC4)ccc3c2)C(=O)N2CCC(N)CC2)cc1)C(F)(F)F [Compound 166-1, (R)—N-(3-(4-aminopiperidin-1-yl)-1,1-difluoro-3-oxo-1-(4-(3,3,3-trifluoroprop-1-en-2-yl)phenyl)propan-2-yl)-6-(cyclopentyloxy)naphthalene-2-sulfonamide]
1 to 10 | C=C(c1ccc(C(F)(F)[C@@H](NS(=O)(=O)c2ccc3cc(OC4CCCC4)ccc3c2)C(=O)N2CCC(N)CC2)cc1)C(F)(F)F [Compound 166-2, (S)—N-(3-(4-aminopiperidin-1-yl)-1,1-difluoro-3-oxo-1-(4-(3,3,3-trifluoroprop-1-en-2-yl)phenyl)propan-2-yl)-6-(cyclopentyloxy) naphthalene-2-sulfonamide]
1 to 10 | NC1CCN(C(=O)[C@@H](NS(=O)(=O)c2ccc3cc(OC4CCCC4)ccc3c2)C(F)(F)c2ccc(Cl)c(OC3CC3)c2)CC1 [Compound 168-1, (R)—N-(3-(4-aminopiperidin-1-yl)-1-(4-chloro-3-cyclopropoxyphenyl)-1,1-difluoro-3-oxopropan-2-yl)-6-(cyclopentyloxy)naphthalene-2-sulfonamide trifluoroacetate]
10 to 30 | NC1CCN(C(=O)[C@H](NS(=O)(=O)c2ccc3cc(OC4CCCC4)ccc3c2)C(F)(F)c2ccc(Cl)c(OC3CC3)c2)CC1 [Compound 168-2, (S)—N-(3-(4-aminopiperidin-1-yl)-1-(4-chloro-3-cyclopropoxyphenyl)-1,1-difluoro-3-oxopropan-2-yl)-6-(cyclopentyloxy) naphthalene-2-sulfonamide trifluoroacetate]
< 1 | CCCOc1cc(C(F)(F)[C@H](NS(=O)(=O)c2ccc3cc(OC4CCCC4)ccc3c2)C(=O)N2CCC(N)CC2)ccc1Cl [Compound 169-1, (R)—N-(3-(4-aminopiperidin-1-yl)-1-(4-chloro-3-propoxyphenyl)-1,1-difluoro-3-oxopropan-2-yl)-6-(cyclopentyloxy)naphthalene-2-sulfonamide trifluoroacetate]
1 to 10 | CCCOc1cc(C(F)(F)[C@@H](NS(=O)(=O)c2ccc3cc(OC4CCCC4)ccc3c2)C(=O)N2CCC(N)CC2)ccc1Cl [Compound 169-2, (S)—N-(3-(4-aminopiperidin-1-yl)-1-(4-chloro-3-propoxyphenyl)-1,1-difluoro-3-oxopropan-2-yl)-6-(cyclopentyloxy) naphthalene-2-sulfonamide trifluoroacetate]
1 to 10 | NC1CCN(C(=O)[C@@H](NS(=O)(=O)c2ccc3cc(OC4CCCC4)ccc3c2)C(F)(F)c2ccc(Cl)c(OC3CCCC3)c2)CC1 [Compound 170-1, (R)—N-(3-(4-aminopiperidin-1-yl)-1-(4-chloro-3-(cyclopentyloxy)phenyl)-1,1-difluoro-3-oxopropan-2-yl)-6-(cyclopentyloxy)naphthalene-2-sulfonamide trifluoroacetate]
